Data on two compounds can be found in patent publication US7658727B1, “Implantable medical device with enhanced biocompatibility and biostability” (Medtronic, Inc, priority 1998, dated 2010).

The structures appear in SMILES notation.

Format in all cases: cell-based
The test system of one assay is human Mo/MØs. Description: Surface analysis (OM/SEM) for environmental stress cracking after macrophage/FeCl2 treatment. Particulars: AS PEU exposed to Mo/MØs plus DSP followed by FeCl2. On the procedure:
Macrophage Treatment. The PEU film specimens (AS and non-AS) in the microwell plates were covered with either freshly isolated human or rabbit monocyte-derived macrophage (Mo/MØs), or human lymphocytes (3×10^5 cells per well) and cultured in a standard media (RPMI-1640, 10% Fetal bovine serum, […], 10 Ul/ml Penicillin-G and 0.1 mg/ml Streptomycin). A 49-day macrophage treatment was conducted under standard conditions (i.e., presence of 5% CO2, and 95% humidity at 37° C.). […] Two blank conditions were also studied. In one, culture media only was placed into the microwells. The other was prepared with no culture media and stored in the dark. All polymer specimens were incubated for the time of the first treatment. Samples in triplicate were removed after various time periods for hydroperoxide determination. After a 49-day incubation, specimens were prepared in triplicate for the second step of the sample treatment protocol.
FeCl2 treatment. […]
(§1) The polymer films (0.12 mm thick) were sufficiently thin and transparent to enable visualization of cells on their surfaces during cell culturing using optical microscopy (OM) with an Olympus BX40 light microscope. […] The polymer surfaces were also evaluated using SEM following the 10-day treatment with FeCl2. […]

Assay [1] deals with human monocyte-derived macrophage (Mo/MØs). Description: Morphology of Mo/MØ monolayers on polyetherurethane (OM, SEM). Particulars: Mo/MØs cultured on PEU with DSP in culture media. On the procedure:
Human and rabbit blood was used as sources of the cells in these experiments. Blood was anticoagulated with 2 units/ml sodium heparin (Upjohn Co., Kalamazoo, MI). Mononuclear cells (lymphocytes, monocytes) were isolated within 15 minutes by a one-step density gradient centrifugation procedure using Isopaque-1077 (a density gradient solution) according to a modified Boyum's method (Boyum et al., Blood Separation and Plasma Fractionation, 217-239, Wiley-Liss, Inc. (1991)). The mononuclear cells were harvested and washed twice with cold Hanks balanced salt solution (HBSS) without Ca^2+ and Mg^2+ to minimize cell aggregation. The cells were then resuspended in standard media (RPMI-1640, 10% Fetal bovine serum, […], 10 Ul/ml Penicillin-G, and 0.1 mg/ml Streptomycin). The cell suspension was seeded into several plastic tissue culture flasks and incubated in the presence of 5% CO2 at 37° C. for 1 hour (Ackerman et al., J. Immunol., 20, 1372-1374 (1978)). After this incubation, adherent (monocytes) were gently scrapped from the surface and resuspended in standard media. […]
as §1

In the next assay the test system is IL-8. Description: In vitro expression of IL-8 in human primary monocytes. Particulars: DEX 2.5, 0.25, 0.025 μg/ml; methotrexate 50, 5, 0.5 μg/ml.
For another assay, the system named is IL-1α. In words: In vitro expression of IL-1α in human primary monocytes. Particulars: DEX 2.5, 0.25, 0.025 μg/ml; methotrexate 50, 5, 0.5 μg/ml.

Method for IL-1α: (§2) In order to assess the in vitro expression of IL-1α and IL-8, human primary monocytes were incubated with various concentrations of DEX (2.5, 0.25, and 0.025 μg/ml) and methotrexate (50, 5, and 0.5 μg/ml).
Method for IL-8: as §2

In the case of `C[C@@H]1C[C@H]2[C@@H]3CCC4=CC(=O)C=C[C@]4(C)[C@@]3(F)[C@@H](O)C[C@]2(C)[C@@]1(O)C(=O)COP(=O)(O)O` [DSP, dexamethasone sodium phosphate], in the assay with human Mo/MØs, the “surface damage (SEM) after FeCl2” value is “only very occasional pits”. In addition, the “cell size of Mo/MØ monolayers (OM)” value in assay [1] is “no increase in cell size”.

`CN(Cc1cnc2nc(N)nc(N)c2n1)c1ccc(C(=O)N[C@@H](CCC(=O)O)C(=O)O)cc1` [methotrexate]: the IL-8 inhibition result with IL-8 is “higher rate of IL-1 and IL-8 inhibition”. The IL-1 inhibition entry in the assay on IL-1α is “higher rate of IL-1 and IL-8 inhibition”.
